Data as given in US20240108760A1 (priority 2021, published 2024).
“Also recorded” adds a separate entry of the source. Like-named read-outs stand apart in the source and are kept apart here.

Legend:
[1] = target: T1, CODA71 chimeric receptors (Homo sapiens, UniProt P36544, F159M/H163T/I152M/R155K/V154L/W156N/Y151P); assay: Evoked hippocampal seizure threshold, perforant pathway electrical stimulation; assay type: in vivo, C57BL/6 mice; conditions: for increase of minimal threshold potential to evoke electrographic seizures: i.p. TC-5619 (100 mg/kg)
Procedure: (§1) Changes to evoked hippocampal seizure thresholds were measured in response to perforant pathway electrical stimulation. For spontaneous seizure experiments, mice were unilaterally injected intrahippocampally with kainic acid (KA) to induce epilepsy, 3 weeks prior to AAV9 injection and EEG electrode implantation.
In one set of animal studies, two weeks prior to seizure threshold testing, CODA71 were bilaterally-expressed in CA1/DG, along with bipolar electrode placement in CAT and the perforant pathway. 45 minutes prior to threshold testing, mice received 100 mg/kg TC-5619 or saline via i.p. injection. Electrical stimulation (1 sec at 60 Hz, 1 ms pulses) of increasing amplitude was delivered every 100 seconds, until electrographic seizures were evoked (FIG. 29).
Here evoked seizure thresholds were determined by monitoring responses to increasing amplitude electrical stimulation and as the minimal stimulation amplitude required to evoke sustained epileptic form activity in each trial.

[2] = target: T1, CODA71 chimeric receptors; assay: Spontaneous seizures in the intrahippocampal kainic acid focal epilepsy model (chronic EEG); assay type: in vivo, C57BL/6 mice; conditions: for focal seizures (overall conclusion): CODA71 delivered by AAV9 to hippocampus, activated by TC-5619
Procedure: as §1
In one set of animal studies, seven weeks prior to testing of neuron activities, kainic acid was unilaterally injected into CAT to evoke spontaneous seizures. Five weeks later, CODA71 receptor were bilaterally expressed in CA1/DG, along with bipolar electrode placement in CAT for recording EEG (FIG. 32). Spontaneous seizures were tracked with chronic EEG recordings. On alternating days, mice received two i.p. injections of either 100 mg/kg TC-5619 or saline, 2 hrs apart.

[3] = target: T1, CODA71 chimeric receptors; assay: Whole cell current clamp recording of CA1 neurons in acute slices, TC-5619 bath application; assay type: cell-based, C57BL/6 mice
hippocampal neurons = assay: Hippocampal expression of CODA71 receptor after AAV9 delivery; assay type: in vivo, C57BL/6 mice; conditions: hSyn promoter
[4] = CODA71 vector injected mice, 100 mg/kg TC-5619 i.p. 45 minutes prior
[5] = scrambled control vector injected mice, TC-5619

Molecule	increase of minimal threshold potential to evoke electrographic seizures ([1]; CODA71 animals, p=0.0166 vs scrambled controls) [%]	electrically-evoked seizure threshold [1, 4]	electrically-evoked seizure threshold [1, 5]	increase of minimal threshold potential to evoke electrographic seizures ([1]; scrambled controls) [%]	focal seizures (overall conclusion) [2]	electrographic seizure duration ([2]; CODA71 vector mice, KA epileptic, i.p. TC-5619 100 mg/kg, p=0.0011, 100 mg/kg)	electrographic / spontaneous seizure frequency ([2]; CODA71 vector mice, KA epileptic, i.p. TC-5619 100 mg/kg, p=0.0325, 100 mg/kg)	spontaneous seizure frequency and duration [2, 5]	neuronal / CA1 action potential firing, excitability [3]	rheobase [3] [pA]	neuron property change in presence of bungarotoxin (BTX) ([3]; CODA71 vector vs scrambled control vector, α7-nAChR ligand binding domain inhibited by BTX)	intrinsic properties of whole cell recorded neurons (RMP, input resistance, rheobase, AP count) ([3]; after 1 minute application of 150 nM TC-5619)	neuronal / CA1 action potential firing, excitability ([3]; acute slices, CODA71 transduced, 1-minute bath application of 150 nM TC-5619)	expression of CODA71 receptor in hippocampal / CA1 neurons (hippocampal neurons)
O=C(N[C@@H]1C2CCN(CC2)[C@H]1Cc1cccnc1)c1cc2ccccc2o1 [TC-5619]	139±48.0	increased more	did not change seizure thresholds	−10±13.2	ameliorate spontaneous focal seizures	significantly reduced; also recorded: substantial decrease in seizure duration	significantly reduced; also recorded: dropped dramatically; also recorded: prolonged decrease in seizure frequency	little change; also recorded: No such effect was observed	suppressed CA1 action potential firing	368±39.7	little property change	rapidly changed		
CODA71: chimeric LGIC: human α7-nAChR ligand binding domain with GlyRα1 Cys-loop, fused to human GlyRα1 ion pore domain; SEQ ID NO: 33 (protein) MRCSPGGVWLALAASLLHVSLQGEFQRKLYKELVKNYNPLERPVANDSQPLTVYFSLSLLQIMDVDEKNQVLTTNIWLQMSWTDHYLQWNVSEYPGVKTVRFPDGQIWKPDILLYNSADERFDATFHTNVLVNSSGHCQYLPPGIFKSSCPMDLKNFPMDVQTCKLKFGSWSYGGWSLDLQMQEADISGYIPNGEWDLVGIPGKRSERFYECCKEPYPDVTFTVTMRRRMGYYLIQMYIPSLLIVILSWISFWINMDAAPARVGLGITTVLTMTTQSSGSRASLPKVSYVKAIDIWMAVCLLFVFSALLEYAAVNFVSRQHKELLRFRRKRRHHKSPMLNLFQEDEAGEGRFNFSAYGMGPACLQAKDGISVKGANNSNTTNPPPAPSKSPEEMRKLFIQRAKKIDKISRIGFPMAFLIFNMFYWIIYKIVRREDVHNQ		increased			effectively suppress focal seizure; also recorded: ameliorate spontaneous focal seizures; also recorded: prevented both evoked and spontaneous focal seizures								effectively suppress neuronal firing; also recorded: successfully suppressed hippocampal neuronal excitability	expressed well; also recorded: effective expression
